The values below come from patent US20260008758A1, “LINEAR DIPEPTIDYL PEPTIDASE 1 INHIBITORS AND USES THEREOF” (Insmed Incorporated, priority 2024, published 2026).

Assay [1] addresses T1, human DPP1 enzyme (Homo sapiens (Human), UniProt P53634). As to the kind of experiment: Human DPP1 enzyme single-point percent inhibition testing (HL-60 lysate, H-Gly-Arg-AMC substrate). The format is biochemical. As to conditions: read-out: human DPP1 enzyme % inhibition @ 10 nM, 10 nM compound, 400 μM H-Gly-Arg-AMC, 10 min pre-incubation at 37° C. Here is the method: A crude lysate of HL-60 cells (ATCC; Manassas, VA) was used as a source of human DPP1 enzyme in the assay. Lysate was prepared in 1% Triton X-100 in PBS at a concentration of 20,000 live cells per […] of lysis buffer and was centrifuged at 16,000 rcf for 10 minutes at 4° C., after which supernatant was collected and flash-frozen in liquid nitrogen. Test articles were applied to human DPP1 enzyme in Assay Buffer (25 mM MES pH 6.0, 50 mM NaCl, 5 mM DTT) in a total reaction volume of 125 μL. 25 μL of compound diluted to 50 nM in Assay Buffer plus 5% DMSO was first added to 50 μL of HL-60 lysate diluted to contain a DPP1 enzyme concentration of roughly 1 ng/μL and allowed to pre-incubate for 10 minutes at 37° C. after which 50 μL of 1000 μM H-Gly-Arg-AMC substrate (Bachem; St. Torrance, CA) was added, giving final compound concentration of 10 nM, a final substrate concentration of 400 μM and a final DMSO concentration of 1%. Substrate cleavage was measured for 90 minutes at 37° C., with fluorescence at Excitation/Emission 350/450 nm measured every 5 minutes. DPP1 concentration was interpolated based on its activity relative to a standard curve of activated human recombinant DPP1 enzyme. Percent inhibition at 10 nM was calculated for each test article based on remaining DPP1 activity compared to enzyme activity in wells that received only vehicle control.

In a further assay the target is DPP1 in HL-60 cells (Homo sapiens (Human), UniProt P53634). Kind of assay: DPP1 cell single-point percent inhibition testing (HL-60 cells, H-Gly-Phe-AFC substrate). The format is cell-based. To be noted: read-out: DPP1 cell % inhibition @ 5 nM, 5 nM compound, 100 μM H-Gly-Phe-AFC, 60 min pre-incubation at 37° C. As for the experimental part:
HL-60 cells (ATCC; Manassas, VA) were maintained in RPMI-1640 supplemented with 20% heat-inactivated FBS and 1× Antibiotic Antimycotic (Cytiva; Marlborough, MA). Media was changed every three to four days and cells were not allowed to exceed 1×10^6 cells per mL. Prior to assay, cells were collected by centrifugation at 500 rcf for 3 minutes, resuspended in RPMI (with no additional supplements) and counted. Cells were diluted in RPMI to a concentration of 5×10^5 live cells per mL and transferred to black 96-well plates for assay, 60 μL per well. Test articles were diluted to 25 nM in RPMI plus 0.5% DMSO, and 20 μL was added to each assay well. Compound was allowed to pre-incubate with cells with gentle shaking at 100 rpm for 60 minutes at 37° C. in a cell culture incubator maintained at 5% CO2, after which 20 μL of 500 μM H-Gly-Phe-AFC cell-permeable substrate (MP Biomedicals; Solon, OH) in RPMI was added to each well, giving final compound concentration of 5 nM, a final substrate concentration of 100 μM and a final DMSO concentration of 0.1%. Plates were returned to the incubator with shaking at 100 rpm for 30 minutes, after which fluorescence was measured at Excitation/Emission 400/505 nm. Percent Inhibition was calculated from RFU values by first subtracting background values (wells in which RPMI was substituted for cells) from each well, and then subtracting background-subtracted RFU derived from wells that received a final concentration of 10 μM brensocatib. This value represents the non-specific substrate cleavage from the HL-60 cells, and the remaining RFU should theoretically be solely the contribution of DPP1 enzyme activity. The final percent inhibition value was calculated for each test article based on remaining RFU compared to RFU from wells that received only vehicle control.

The target in assay [2] is T1, human DPP1 enzyme. As to the kind of experiment: Human DPP1 enzyme IC50 assay. To be noted: recombinant human DPP1, H-Gly-Arg-AMC substrate 400 μM. The class given is biochemical. Here is the method:
Test articles were applied to activated human DPP1 enzyme in Assay Buffer (25 mM MES pH 6.0, 50 mM NaCl, 5 mM DTT) in a total reaction volume of 125 μL. 25 μL of compound in Assay Buffer plus 5% DMSO was first added to 50 μL of activated human DPP1 enzyme at a concentration of 1 ng/μL and allowed to pre-incubate for 10 minutes at 37° C. after which 50 μL of 1000 μM H-Gly-Arg-AMC substrate (Bachem; St. Torrance, CA) was added, giving final substrate concentration of 400 μM and a final DMSO concentration of 1%. Substrate cleavage was measured for 90 minutes at 37° C., with fluorescence at Excitation/Emission 350/450 nm measured every 5 minutes. DPP1 concentration was interpolated based on its activity relative to a standard curve of activated human recombinant DPP1 enzyme. IC50 values for each compound were calculated via the XLFit (IDBS Version 5.3.1.3) Add-On to Microsoft Excel using the four parameter fit equation y={A+[(B-A)]/[1+((C/x)^D)]}, which appears as equation number 205 (4 Parameter Logistic Model or Sigmoidal Dose-Response Model) in XLFit. Default constraints were used for each Parameter.

SMILES strings stand for the structures.

DPP1 in HL-60 cells, sequence (P53634 25-134): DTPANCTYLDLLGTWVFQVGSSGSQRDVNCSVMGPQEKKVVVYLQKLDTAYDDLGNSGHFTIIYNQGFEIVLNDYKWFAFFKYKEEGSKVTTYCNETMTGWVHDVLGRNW
DPP1 in HL-60 cells, sequence (P53634 231-394): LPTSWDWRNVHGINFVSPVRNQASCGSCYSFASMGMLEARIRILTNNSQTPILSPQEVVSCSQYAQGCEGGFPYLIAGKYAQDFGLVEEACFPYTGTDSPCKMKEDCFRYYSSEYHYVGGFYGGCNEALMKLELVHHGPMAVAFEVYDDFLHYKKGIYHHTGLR
DPP1 in HL-60 cells, sequence (P53634 395-463): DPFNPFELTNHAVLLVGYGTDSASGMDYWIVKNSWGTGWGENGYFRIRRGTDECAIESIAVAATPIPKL
T1 sequence (P53634 25-134): as the sequence (P53634 25-134) above
T1 sequence (P53634 231-394): as the sequence (P53634 231-394) above
T1 sequence (P53634 395-463): as the sequence (P53634 395-463) above

As usually defined, the inhibition is the percentage by which the read-out fell short of the control. As for `CN(C)C[C@](C)(O)C(=O)N[C@H](C#N)Cc1cc2c(cc1F)-c1ccc(F)cc1CO2` [Compound 420], the inhibition at 0.01 µM on human DPP1 enzyme [1] is at most 40%. The inhibition at 0.005 µM on DPP1 in HL-60 cells was at most 76.5%.
The like results for `CO[C@@H](CN(C)C)C(=O)N[C@H](C#N)Cc1ccc(-c2ccc3oc(=O)n(CCN4CCOCC4)c3c2)cc1` [Compound 309] were, in that order, at most 40% and at most 76.5%.
On to `CO[C@@H](CN(C)C)C(=O)N[C@H](C#N)Cc1ccc(-c2ccc3c(c2)C2(CCN(C)C2)OC3=O)cc1F` (stereo partly drawn) [Compound 319], for which the inhibition at 0.01 µM at human DPP1 enzyme [1] is at least 66.7%. At DPP1 in HL-60 cells, the inhibition at 0.005 µM was at most 76.5%.
The like results for `CN(C)C[C@H](O)C(=O)N[C@H](C#N)Cc1ccc(-c2ccc3c(c2)C2(CC3)CCN(C)CC2)cc1F` [Compound 355] were, in that order, at least 66.7% and at most 76.5%.
In the case of `CN(C)C[C@](C)(O)C(=O)NC(C#N)Cc1cc2c(cc1F)-c1cc3c(cc1CO2)oc(=O)n3C` (stereo partly drawn) [Compound 381], the inhibition at 0.01 µM on human DPP1 enzyme [1] was in the range of 40 to 66.7%. Further, the inhibition at 0.005 µM on DPP1 in HL-60 cells fell in the range of 76.5 to 93.9%.
As for `CN(C)C[C@](C)(O)C(=O)N[C@H](C#N)Cc1ccc(-c2ccc3cnn(C4CCN(C)CC4)c3c2)cc1` [Compound 391], the inhibition at 0.01 µM on human DPP1 enzyme [1] was at least 66.7%. The inhibition at 0.005 µM at DPP1 in HL-60 cells was at most 76.5%.
As for `CO[C@@H](CN(C)C)C(=O)N[C@H](C#N)Cc1ccc(-c2cc3c(C)nc(C)cn3c2)cc1F` [Compound 316], at human DPP1 enzyme [1], the inhibition at 0.01 µM is at most 40%. On DPP1 in HL-60 cells, the inhibition at 0.005 µM was at most 76.5%.
The like results for `CO[C@@H](CN(C)C)C(=O)N[C@H](C#N)Cc1ccc(-c2ccc3c(c2)C2(CCCN(C)C2)C(=O)N3C)cc1F` (stereo partly drawn) [Compound 314] were, in that order, 40 to 66.7% and at least 93.9%.
The like results for `CN(C)C[C@](C)(O)C(=O)N[C@H](C#N)Cc1ccc(-c2ccc3c(c2)C2(CCCN(C)C2)C(=O)N3C)cc1` (stereo partly drawn) [Compound 385] were, in that order, at least 66.7% and at least 93.9%.
For `CN(C)C[C@](C)(O)C(=O)NC(C#N)Cc1cc2c(cc1F)-c1cc(C#N)ccc1CO2` (stereo partly drawn) [Compound 382], in that order: at most 40% and at most 76.5%.
As for `CO[C@@H](CN(C)C)C(=O)N[C@H](C#N)Cc1ccc(-c2ccc3c(c2)C2(CCN(C4COC4)CC2)OC3)cc1` [Compound 308], the inhibition at 0.01 µM at human DPP1 enzyme [1] was at most 40%. Further, the inhibition at 0.005 µM at DPP1 in HL-60 cells was at most 76.5%.
The like results for `CN(C)C[C@](C)(O)C(=O)NC(C#N)Cc1cc2c(cc1F)-c1ccc3oc(=O)n(C)c3c1CO2` (stereo partly drawn) [Compound 383] were, in that order, at most 40% and at most 76.5%.
With `CN(C)C[C@](C)(O)C(=O)N[C@H](C#N)Cc1ccc(-c2ccc3c(c2)C2(CCCN(C)C2)C(=O)N3C)cc1F` (stereo partly drawn) [Compound 398], at human DPP1 enzyme [1], the inhibition at 0.01 µM is at least 66.7%. For the same compound, the inhibition at 0.005 µM on DPP1 in HL-60 cells was at least 93.9%.
The like results for `COCCN(C)CCn1c(=O)oc2ccc(-c3ccc(C[C@@H](C#N)NC(=O)[C@H](CN(C)C)OC)c(F)c3)cc21` [Compound 326] were, in that order, at least 66.7% and at most 76.5%.
As for `CN(C)C[C@H](O)C(=O)N[C@H](C#N)Cc1cc2c(cc1F)-c1ccc(C#N)cc1CO2` [Compound 338], the inhibition at 0.01 µM on human DPP1 enzyme [1] is at most 40%. Moreover, the inhibition at 0.005 µM on DPP1 in HL-60 cells was at most 76.5%.
Regarding `CN(C)CCn1c(=O)oc2ccc(-c3ccc(C[C@@H](C#N)NC(=O)[C@@H](O)CN(C)C)c(F)c3)cc21` [Compound 357], at human DPP1 enzyme [1], the inhibition at 0.01 µM was at least 66.7%. Further, the inhibition at 0.005 µM at DPP1 in HL-60 cells was at most 76.5%.
With `CN(C)C[C@](C)(O)C(=O)N[C@H](C#N)Cc1ccc(-c2ccc3c(n2)CCCN3)cc1F` [Compound 409], at human DPP1 enzyme [1], the inhibition at 0.01 µM was at least 66.7%. Moreover, the inhibition at 0.005 µM on DPP1 in HL-60 cells was in the range of 76.5 to 93.9%.
The like results for `CN(C)C[C@](C)(O)C(=O)N[C@H](C#N)Cc1ccc(-c2ccc(S(=O)(=O)N3CCC3)cc2)cc1F` [Compound 419] were, in that order, at most 40% and at most 76.5%.
For `CN(C)C[C@H](O)C(=O)N[C@H](C#N)Cc1ccc(-c2ccc3oc(=O)n(CCN4CCOCC4)c3c2)cc1F` [Compound 364], in that order: 40 to 66.7% and at most 76.5%.
As for `CO[C@@H](CN(C)C)C(=O)N[C@H](C#N)Cc1ccc(-c2ccc3c(c2)C2(CC3)CCN(C)CC2)cc1` [Compound 300], the inhibition at 0.01 µM at human DPP1 enzyme [1] fell in the range of 40 to 66.7%. The inhibition at 0.005 µM at DPP1 in HL-60 cells was at most 76.5%.
With `CO[C@@H](CN(C)C)C(=O)N[C@H](C#N)Cc1ccc(-c2ccc(S(=O)(=O)N3CCC3)cc2)cc1F` [Compound 335], the inhibition at 0.01 µM at human DPP1 enzyme [1] is at most 40%. In addition, on DPP1 in HL-60 cells, the inhibition at 0.005 µM was at most 76.5%.
With `CO[C@@H](CN(C)C)C(=O)N[C@H](C#N)Cc1ccc(-c2ccc3nnn(C)c3c2)cc1F` [Compound 333], on human DPP1 enzyme [1], the inhibition at 0.01 µM is 40 to 66.7%. The inhibition at 0.005 µM on DPP1 in HL-60 cells was in the range of 76.5 to 93.9%.
Regarding `CN(C)C[C@H](O)C(=O)NC(C#N)Cc1cc2c(cc1F)-c1cc(C#N)ccc1CO2` (stereo partly drawn) [Compound 340], on human DPP1 enzyme [1], the inhibition at 0.01 µM was at most 40%.
A word on the IC50: it is the concentration needed to halve the response being measured. Consider `C[C@H](N)[C@H](O)C(=O)N[C@H](C#N)Cc1ccc(-c2ccc3oc(=O)n(C)c3c2)cc1` [Compound 102C], for which, on human DPP1 enzyme [2], the concentration for half-maximal inhibition (IC50) is at least 15 nM.
Same read-out and setting: the result for `CN(C)C[C@@H](O)CC(=O)N[C@H](C#N)Cc1ccc(-c2ccc3oc(=O)n(C)c3c2)cc1` [Compound 113, (3S)—N-[(1S)-1-cyano-2-[4-(3-methyl-2-oxo-1,3-benzoxazol-5-yl)phenyl]ethyl]-4-(dimethylamino)-3-hydroxybutanamide] reads at least 15 nM; that for `CO[C@H](CN(C)C)C(=O)N[C@H](C#N)Cc1ccc(-c2ccc3oc(=O)n(C)c3c2)cc1` [Compound 112, (2R)—N-[(1S)-1-cyano-2-[4-(3-methyl-2-oxo-1,3-benzoxazol-5-yl)phenyl]ethyl]-3-(dimethylamino)-2-methoxypropanamide], at least 15 nM; that for `Cn1c(=O)oc2ccc(-c3ccc(C[C@@H](C#N)NC(=O)C[C@H](N)c4ccccc4O)cc3)cc21` [Compound 227A, (3S)-3-amino-N-[(1S)-1-cyano-2-[4-(3-methyl-2-oxo-1,3-benzoxazol-5-yl)phenyl]ethyl]-3-(2-hydroxyphenyl)propenamide], at least 15 nM.
With `Cn1c(=O)oc2ccc(-c3ccc(C[C@@H](C#N)NC(=O)C(C)(N)c4ccc(O)cc4)cc3)cc21` (stereo partly drawn) [Compound 200, 2-amino-N-[(1S)-1-cyano-2-[4-(3-methyl-2-oxo-1,3-benzoxazol-5-yl)phenyl]ethyl]-2-(4-hydroxyphenyl)propanamide], the IC50 on human DPP1 enzyme [2] was at least 15 nM.
Same read-out and setting: the result for `CC(CO)CC(N)C(=O)N[C@H](C#N)Cc1ccc(-c2ccc3oc(=O)n(C)c3c2)cc1` (stereo partly drawn) [Compound 168, 2-amino-N-[(1S)-1-cyano-2-[4-(3-methyl-2-oxo-1,3-benzoxazol-5-yl)phenyl]ethyl]-5-hydroxy-4-methylpentanamide] reads at least 15 nM.
